Source: patent US20030153731A1, “Endothelial cell-leukocyte adhesion molecules (ELAMs) and molecules involved in leukocyte adhesion (MILAs)” (priority 1989, published 2003)

T1: 1,3-fucosyl transferase in extracts from CHO cells transfected with clone 7.2 (Homo sapiens, UniProt P22083)
T1 construct: expressed in transfected cells; host or cells: CHO cells transfected with clone 7.2; Triton X-100 lysate
T1 sequence (P22083 1-405 isoform P22083-2): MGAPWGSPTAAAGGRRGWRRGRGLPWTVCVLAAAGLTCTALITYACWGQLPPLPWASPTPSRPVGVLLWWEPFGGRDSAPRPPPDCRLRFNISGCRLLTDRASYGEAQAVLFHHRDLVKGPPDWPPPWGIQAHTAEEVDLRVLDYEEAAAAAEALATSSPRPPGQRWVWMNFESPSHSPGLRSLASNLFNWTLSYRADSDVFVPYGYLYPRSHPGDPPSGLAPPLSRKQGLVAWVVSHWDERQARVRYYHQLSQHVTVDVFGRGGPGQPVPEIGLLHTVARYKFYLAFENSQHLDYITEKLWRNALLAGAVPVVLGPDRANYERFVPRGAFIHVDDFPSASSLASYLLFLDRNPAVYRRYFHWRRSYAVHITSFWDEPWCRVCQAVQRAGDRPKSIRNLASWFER

B1: rsELAM1: portion of the extracellular domain of ELAM1 encoded by nucleotides 141 to 1790 of FIG. 1 (protein, UniProt P16581 22-556, looked up)
extracellular domain: WSYNTSTEAMTYDEASAYCQQRYTHLVAIQNKEEIEYLNSILSYSPSYYWIGIRKVNNVWVWVGTQKPLTEEAKNWAPGEPNNRQKDEDCVEIYIKREKDVGMWNDERCSKKKLALCYTAACTNTSCSGHGECVETINNYTCKCDPGFSGLKCEQIVNCTALESPEHGSLVCSHPLGNFSYNSSCSISCDRGYLPSSMETMQCMSSGEWSAPIPACNVVECDAVTNPANGFVECFQNPGSFPWNTTCTFDCEEGFELMGAQSLQCTSSGNWDNEKPTCKAVTCRAVRQPQNGSVRCSHSPAGEFTFKSSCNFTCEEGFMLQGPAQVECTTQGQWTQQIPVCEAFQCTALSNPERGYMNCLPSASGSFRYGSSCEFSCEQGFVLKGSKRLQCGPTGEWDNEKPTCEAVRCDAVHQPPKGLVRCAHSPIGEFTYKSSCAFSCEEGFELHGSTQLECTSQGQWTEEVPSCQVVKCSSLAVPGKINMSCSGEPVFGTVCKFACPEGWTLNGSAARTCGATGHWSGLLPTCEAPTESNIP
modifications: extracellular domain

Tests used:
[1] = target: T1, 1,3-fucosyl transferase in extracts from CHO cells transfected with clone 7.2; test: fucosyl transferase enzyme assay: linking 14C-fucose to acceptor molecules; format: biochemical; details: for Efficiency of Fucosylation: enzyme freshly produced from transfected CHO cells, 1 hour at 37° C; for linking of fucose to acceptor by the induced enzyme: extract of CHO cells transfected with clone 7.2
Protocol: The assays tested the ability of the enzyme to link radioactively labelled fucose to an acceptor molecule. We performed the assays as follows.
We prepared assay samples containing 10 μl enzyme, 8 μl cocktail and 2 μl 10×acceptor. We prepared the enzyme by isolating about 1.5 million CHO cells transfected with clone 7.2 and lysing them by sonication for 15 seconds in 150 μl ice-cold 1% Triton X-100 in water. The cocktail contained 75 μM ^14C-GDP fucose, 100 mM ATP, 500 mM L-fucose, 1 M MnCl2 and 1 M cacodylate at pH 6.2. 10×acceptor contained, variously, 200 mM LacNAc, Lac-N-biose, or lactose, 250 mM phenyl-β-D-galactoside, or 50 mM 2′-fucosyllactose. We incubated the assay samples for 1 hour at 37° C. We stopped the reaction by addition of 20 μl ethanol. We diluted the sample with 560 μl water and centrifuged in an EPPENDORF centrifuge for 5 minutes at high speed.
We had prepared a DOWEX 1×2-400 column (Sigma Chemical Co.) to separate the unconverted ^14C fucose-GDP from the converted. We loaded the matrix into a large column and washed it with 10 volumes of iN NaOH, followed by 5 volumes of water, followed by 10 volumes of 5% concentrated formic acid. Then we repeated this wash cycle. We used this material to create small columns of 0.4 ml. We prepared the small columns for use by washing them with 10 volumes of water.
We loaded 200 μl of the sample onto the small column, collected the eluate, rinsed with 2 ml water and collected it into the eluate. We determined the radioactivity of this eluate by scintillation counting.

HL-60 cells; RAMOS cells = test: cell binding to rsELAM1-coated plates; format: cell-based, human
Protocol: To a 6 cm diameter Petri dish of bacteriologic plastic (e.g., Falcon 110070) we added 2.5 ml of 50 mM Tris buffer, pH 9.5. To this we added 10 μg of pure rsELAM1. We incubated the plate for 60 minutes at room temperature to allow the rsELAM1 to bind to the plate. Then we aspirated the medium and replaced it with PBS containing 10 mg/ml bovine serum albumin. We incubated the plates overnight at 40 in this solution to block remaining protein binding sites on the plates. We warmed the plates to room temperature, washed them with medium containing 10% fetal calf serum, and incubated them with 2 ml of cells (2×10^6 ml^−1) for 20 minutes. We aspirated the medium and washed the plates twice with 3 ml each of medium (RPMI 1640 with 10% serum). Then we examined the plates by microscopy.
A second assay would test the ability of a small molecule to inhibit cell binding to ELAM itself. We have developed such an assay with rsELAM1 which works in 96 well microtiter plates. These plates, made of bacteriologic plastic (e.g. Linbro/Titertek #76-232-050), are incubated with 0.5 μg per well of rsELAM1 in 50 μl of 15 mM sodium carbonate/35 mM sodium bicarbonate, pH 9.2, overnight at 40. The plates are then blocked for one hour at room temperature with PBS containing 10 mg/ml of bovine serum albumin, and then adhesion assays performed as described in Example VIII using, e.g., HL-60 cells, 2×10^6/ml, 50 μl per well. Under these conditions HL-60 cells bind well to rsELAM1, providing a convenient microassay for screening. One would identify inhibitors by their ability to inhibit HL-60 binding to the plate. Alternatively, one could use an ELAM ligand in this assay, using as the probe a cell line that stably expresses an ELAM.

| Molecule | Efficiency of Fucosylation [1] | linking of fucose to acceptor by the induced enzyme [1] | binding of HL-60 cells to rsELAM1 in 96 well microtiter plates (HL-60 cells; RAMOS cells; 0.5 μg per well rsELAM1, HL-60 2×10^6/ml, 50 μl per well) | binding of HL-60 cells to rsELAM1-coated plates (HL-60 cells; RAMOS cells; 6 cm Petri dish, 10 μg rsELAM1) | binding of RAMOS cells to rsELAM1-coated plates (HL-60 cells; RAMOS cells; 6 cm Petri dish, 10 μg rsELAM1) |
| --- | --- | --- | --- | --- | --- |
| CC(=O)N[C@@H]1[C@@H](O[C@@H]2O[C@H](CO)[C@H](O)[C@H](O)[C@H]2O)[C@H](O)[C@@H](CO)O[C@@H]1O [Lac-N-Biose, Lac-N-biose] | 76 picomoles/mg Total protein · h | did not link fucose | – | – | – |
| CC(=O)N[C@H]1C(O)O[C@H](CO)[C@@H](O[C@@H]2O[C@H](CO)[C@H](O)[C@H](O)[C@H]2O)[C@@H]1O (some centres unmarked) [LacNAc] | 1110 picomoles/mg Total protein · h | linked fucose | – | – | – |
| OC[C@H]1O[C@@H](O[C@H]2[C@H](O)[C@@H](O)C(O)O[C@@H]2CO)[C@H](O)[C@@H](O)[C@H]1O (some centres unmarked) [Lactose, lactose] | 290 picomoles/mg Total protein · h | linked fucose | – | – | – |
| OC[C@H]1O[C@@H](Oc2ccccc2)[C@H](O)[C@@H](O)[C@H]1O [PhβDgal, phenyl-β-D-galactoside] | Not detectable | did not link fucose | – | – | – |
| B1 | – | – | bind well | bind to rsELAM1-coated plates | do not bind to these plates |
